Results on two compounds are retold here after US8674085B2, “2′-branched nucleosides and Flaviviridae mutation” (priority 2002, dated 2014).

One assay relates to HCV. Particulars: ribavirin alone; cited from earlier work.
In assay [1] the test system is BVDV strain I-N-dIns (wild type). The experiment in a line: microbe, parasite or virus in culture. The format is cell-based, bovine viral diarrhea virus. On the procedure: (§1) To conduct the virus focus assay, MDBK cells were seeded onto 6-well plates containing 2×10^5 cells per well and grown at 37° C./5% CO2 for at least 5 hours before use. The test samples (culture supernatants combined with cell monolayers) were frozen/thawed twice, serially diluted by 10-fold in medium, and used to inoculate test cells in 6-well plates at 0.2 mL per well. The inoculum was removed after 1 hour of adsorption, and the cells were overlaid with 3 mL of 0.5% agarose in complete growth medium (1× DMEM (Cellgro), supplemented with 8% horse serum, penicillin, streptomycin, L-glutamine, sodium pyruvate, and 25 mM HEPES). After 3 days of incubation at 37° C./5% CO2, the plates were fixed for 1 hour with 3 mL of 7.4% formaldehyde in PBS, and washed with PBS. The cell monolayers were permeabilized with 1 mL of PBS-0.25% Triton X-100 per well for 10 minutes, and incubated with 0.5 mL of goat anti-BVDV antiserum (VMDR, Inc.; diluted 1:1000 in PBS-0.25% Triton X-100) for 1 hour. The antiserum was then removed, and cell monolayers were washed with PBS (twice for 15 min) and incubated with 0.5 mL of peroxidase-conjugated donkey anti-goat antibody (diluted 1:1000 in PBS-0.25% Triton X-100) for another 1 hour. After the antibody was removed, the cell monolayers were washed with PBS (twice for 15 min), and incubated with 0.5 mL of diaminobenzidine (DAB) peroxidase substrate solution (Vector Laboratories) at room temperature until virus foci become visible (approximately 15 minutes). All incubations were carried out with rocking. The staining was stopped by washing with water and the plates were allowed to air dry. Virus titers were calculated in FFU/mL, using the following equation: TFFU/mL=N×5×D; where T is a virus titer in FFU/mL; N is a number of foci per well; and D is a dilution factor for the corresponding virus sample.
(§2) To conduct the virus yield reduction assay, MDBK cells were seeded onto 24-well plates (1×10^5 cells per well) and grown at 37° C./5% CO2 overnight. […] The virus titer in the cell culture was quantified by focus assay as described above. […]

A further assay has as its system BVDV strain I-NADL. Put plainly: BVDV virus yield reduction assay. Format: cell-based, bovine viral diarrhea virus. The following applies: cp. On the procedure: as §1, with “sample. […]” for “sample.”
as §2

Assay [2] concerns BVDV (strain I-N-dIns) in persistently infected MDBK cells. Put plainly: Passaging of persistently infected MDBK cells with 8 μM β-D-2′-CH3-riboC (isolation of resistant BVDV). The format is cell-based, bovine viral diarrhea virus. On the procedure:
(§3) Persistent BVDV infection was established in MDBK cell line (ATCC, Manassas, Va., Catalog #: CCL-22) by in vitro infection of naive cells with a noncytophatic (ncp) BVDV (strain I-N-dIns; Dr. R. Donis, U. of Nebraska, Lincoln, Nebr.). The multiplicity of infection (MOI) was 0.01. Cells were passaged twice per week (splitting ratio 1:15) until the stable high-level of infection (10^6-10^7 focus forming units (FFU) per mL) was achieved, as was determined by a focus assay. Next, the persistently infected cells were grown in 6-well culture plates with 8 μM or without β-D-2′-CH3-riboC (Idenix Pharmaceuticals). Cell cultures were passaged every three to four days by splitting with a ratio of 1:15 to 1:20. After eight passages, cell cultures grown in the presence of β-D-2′-CH3-riboC were expanded to T-75 culture flask, freeze/thawed twice, and used as a virus stock of β-D-2′-CH3-riboC-resistant BVDV for further characterization. The virus titers in cell cultures were monitored at the end of each passage by the virus focus assay.
To conduct the virus focus assay, MDBK cells were seeded onto 6-well plates containing 2×10^5 cells per well and grown at 37° C./5% CO2 for at least 5 hours before use. The test samples (culture supernatants combined with cell monolayers) were frozen/thawed twice, serially diluted by 10-fold in medium, and used to inoculate test cells in 6-well plates at 0.2 mL per well. The inoculum was removed after 1 hour of adsorption, and the cells were overlaid with 3 mL of 0.5% agarose in complete growth medium (1× DMEM (Cellgro), supplemented with 8% horse serum, penicillin, streptomycin, L-glutamine, sodium pyruvate, and 25 mM HEPES). After 3 days of incubation at 37° C./5% CO2, the plates were fixed for 1 hour with 3 mL of 7.4% formaldehyde in PBS, and washed with PBS. […] Virus titers were calculated in FFU/mL, using the following equation: TFFU/mL=N×5×D; where T is a virus titer in FFU/mL; N is a number of foci per well; and D is a dilution factor for the corresponding virus sample. […]

Assay [3] deals with BVDV I-N-dIns β-D-2′-CH3-riboC-R (β-D-2′-CH3-riboC-resistant BVDV). The experiment in a line: BVDV virus yield reduction assay in de novo-infected MDBK cells. Format: cell-based, bovine viral diarrhea virus. As to the method: as §1
To conduct the virus yield reduction assay, MDBK cells were seeded onto 24-well plates (1×10^5 cells per well) and grown at 37° C./5% CO2 overnight. Cells were infected with BVDV at a multiplicity of infection of 0.1. After 1-hour adsorption, the inoculum was removed, and cells were washed with PBS and then overlaid with 1 mL of fresh growth medium, containing serial 2-fold dilutions of the test compound (0-32 μM for β-D-2′-CH3-riboC and 0-800 IU/mL for Intron®A). After incubation at 37° C./5% CO2 for 48 hours, the plates were frozen/thawed at −70° C. twice to lyse the cell cultures. The virus titer in the cell culture was quantified by focus assay as described above. […] The EC50, EC90 and EC4-log values were derived by curve fitting using XLFit software.

Assay [4] relates to BVDV (strain I-N-dIns) in persistently infected MDBK cells. Put plainly: Single or double treatment of persistently infected MDBK cells, virus titers by focus assay. Format: cell-based, bovine viral diarrhea virus. The following applies: for log value of the BVDV titer: 0 IU/mL Interferon alpha-2b; for reduction of viral titers: single treatment, 7 days. On the procedure:
as §3, with “After eight passages, cell cultures grown in the presence of β-D-2′-CH3-riboC were expanded to T-75 culture flask, freeze/thawed twice, and used as a virus stock of β-D-2′-CH3-riboC-resistant BVDV for further characterization.” left out
as §1
The effect of Intron A, alone or in combination with β-D-2′-CH3-riboC, on the wild type BVDV was further studied in the persistently infected MDBK cells. In one experimental setting, the virus titers were determined after 7 days (two passages) of single or double treatment with several inhibitor concentrations.

Where [5] appears, read: Bovine viral diarrhea virus isolates and strains.
The mark [6] stands for this setting: Bovine viral diarrhea virus isolates and strains, MDBK, BVDV strain I-N-dIns β-D-2′-CH3-riboC-R, ncp, 48 hours.

For `NC(=O)c1ncn([C@@H]2O[C@H](CO)[C@@H](O)[C@H]2O)n1` [Ribavirin, 1-β-D-ribofuranosyl-1-1,2,4-triazole-3-carboxamide], in the assay with HCV, the “serum amino transferase levels reduced to normal, share of patients” value is listed as 40%.

Consider `CC1(O)C(O)[C@@H](CO)O[C@H]1n1ccc(N)nc1=O` (stereo partly drawn) [β-D-2′-CH3-riboC], for which the EC4 log is given as 7.14±1.26 μM in assay [1] (BVDV strain I-N-dIns, ncp, concentration reducing viral titer by 99.99%, 48 hours); 8.22 ± 0.05 μM in the assay with BVDV strain I-NADL; over 32 μM in assay [3] (BVDV strain I-N-dIns β-D-2′-CH3-riboC-R, ncp, 48 hours). Further, the EC50 in assay [1] (Bovine viral diarrhea virus isolates and strains, MDBK, BVDV strain I-N-dIns, ncp, concentration reducing viral titer by 50%, 48 hours) was 590 ± 120 nM; with BVDV strain I-NADL (setting [5]), 680 ± 80 nM; in assay [3] (setting [6]), over 32 µM. The virus titers in assay [1] (at 16 μM, wild type virus, below the detection limit) is given as under 10 FFU/mL. Besides, the 90% effect concentration (EC90) with BVDV strain I-NADL (setting [5]) was 1730 ± 110 nM; in assay [3] (setting [6]), over 32 µM. Besides, the “virus titer plateau after reappearance of virus” value in assay [2] (additional passaging in the presence of the inhibitor (virus reappeared at passage 3 to 5)) is 10^5 FFU/mL. In assay [2] (after two passages), the “virus detection in culture” value is reported as “no longer detectable”. For the same compound, in assay [2] (observed even after 28 days of treatment), the “difference in virus titers versus untreated culture” value is about 10 fold. The “fold more resistant to the inhibitor than the wild type virus” value in assay [3] (based on the EC50 values of the virus yield reduction assay) was “at least 54 fold”. The “effect on the resistant virus yield” value in assay [3] (highest concentration tested (32 μM)) is “no effect”. In addition, the “log value of the BVDV titer” value worked out at 5.10 log in assay [4] (2 μM β-D-2′-CH3-riboC, 7 days (two passages)); 4.55 log in assay [4] (4 μM β-D-2′-CH3-riboC, 7 days (two passages)); 0.40 log in assay [4] (8 μM β-D-2′-CH3-riboC, 7 days (two passages)). The “reduction of virus titer” value in assay [4] (8 μM β-D-2′-CH3-riboC alone, 7 days (two passages)) is reported as 6.2 logs. The “reduction of viral titers” value in assay [4] (2 μM β-D-2′-CH3-riboC) is listed as 1.61 logs; in assay [4] (4 μM β-D-2′-CH3-riboC), 2.06 logs.

Broadly, the EC50 is the concentration at which the effect is half-maximal. Low readings indicate an effect from little substance, high ones a need for much substance. Broadly, the EC90 is the concentration at which the effect reaches the 90% level. Higher therefore signals weaker potency.
